Laboratory results reported in US20100075907A1, “NEUROMEDIN U RECEPTOR AGONISTS AND USES THEREOF” (priority 2006, published 2010).
Non-standard residues stand in square brackets, D forms with d. Residues, ends and D or L forms follow the SMILES beside them. No end group written: not given here. *: point of attachment. Succinimide(1-Et,3-yl) = CCN1C(=O)CC(*)C1=O; Palmitoyl = CCCCCCCCCCCCCCCC(=O)*

Experiments:
Assay type in all cases: cell-based
mouse NMUR2 = mouse NMUR2 (Mus musculus, UniProt Q8BZ39); test: FLIPR calcium mobilization assay, mouse NMUR2; design: expressed in transfected cells; host or cells: FLP-In CHO or HEK-293 FLP-In cells (pcDNA5); conditions: for IC50: functional data, mouse R2; for EC50: FLIPR
Chain of mouse NMUR2 (Q8BZ39 whole entry): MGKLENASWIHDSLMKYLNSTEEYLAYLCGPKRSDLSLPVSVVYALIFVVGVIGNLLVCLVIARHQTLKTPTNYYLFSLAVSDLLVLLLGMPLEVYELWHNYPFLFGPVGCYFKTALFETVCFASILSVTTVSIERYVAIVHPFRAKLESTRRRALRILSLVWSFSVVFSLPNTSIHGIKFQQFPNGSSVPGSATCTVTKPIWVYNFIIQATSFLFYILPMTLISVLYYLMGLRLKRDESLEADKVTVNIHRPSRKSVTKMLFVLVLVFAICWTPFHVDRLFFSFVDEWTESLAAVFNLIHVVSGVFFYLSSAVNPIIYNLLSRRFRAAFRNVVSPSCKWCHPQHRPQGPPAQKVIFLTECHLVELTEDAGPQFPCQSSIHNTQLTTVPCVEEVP
Text: (§1) Human, mouse or rat cDNAs encoding NMUR1 or NMUR2 (as described in Howard et al. Nature 406: 70-74 (2000) were subcloned in pcDNA5 (Invitrogen) and transfected into FLP-In CHO cells and HEK-293 FLP-In cells purchased from Invitrogen (Carlsbad, Calif.) using lipofectamine (Invitrogen). The Flp-In system allows integration and expression of a particular gene of interest at a specific genomic location utilizing the Flp recombinase from yeast. The transfected cells were selected by growth in medium containing 200 μg/mL hygromycin (Invitrogen). Populations were frozen at early passage numbers, and these stocks were used for further studies. Stable clones that expressed the mRNAs were identified functionally by FLIPR as well as by RT-PCR. […] Two different rodent NMUR1 cell lines were thus generated: one with the codon as predicted from the genomic databases and another cell line with an engineered methionine (ATG) as the start codon. Additionally, stable cell lines expressing the human receptors were generated in HEK-293/aeq17 cells which stably express the aequorin gene under the CMV promoter. The human NMUR2 cDNA was cloned into pcDNA3.1 and human NMUR1 was subcloned into pIRES-puro (Clontech, Mountain View, Calif.), after transfection cells were selected in media containing G418 and either hygromycin (NMUR2) or puromycin (NMUR1).
(§2) The NMU receptors signal primarily through Gαq/11 proteins; therefore calcium mobilization assays can be utilized for functional activity.
(§3) Stable cell lines expressing human and or rodent NMUR1 or human NMUR2 receptors were plated at a density of 12,000 cells per well overnight on poly-lysine coated 384-well black-walled plates. The following day, the media was removed from the plates and the cells were subsequently loaded with Fluo-3 (Molecular Probes), a calcium sensitive dye, diluted in FLIPR buffer (1× Hank's buffered saline containing 20 mM HEPES, 0.1% BSA, 2.5 mM probenecid (Sigma) and 1.6 mM TR40). All reagents are from Invitrogen unless otherwise noted. Peptide stocks were resuspended in DMSO at a stock concentration of 2 mM and diluted in FLIPR buffer on the day of the experiment to a 4 μM working stock solution.
(§4) After a 90 minute incubation at room-temperature, cell plates were loaded onto a FLIPR (Molecular Devices) to monitor cellular fluorescence (excitation=488 nm; emission=540 nm) before and after compound/peptide addition. Eight to twelve point dose responses were tested on NMUR-expressing cell lines using FLIPR with 1 μM peptide as the highest dose. The response after peptide addition was taken as the maximum fluorescence units minus the fluorescence immediately prior to stimulation for each well. EC50 values were calculated using GraphPad Prism (San Diego, Calif.) software.
(§5) In vitro responses of Neuromedin U receptor agonists (NMU1 to NMU25) in the FLIPR assay for human (Table 3), mouse (Table 4) and rat (Table 5) NMUR1 and NMUR2. EC50s are reported in nM values. Percent activity refers to the maximum response at 1 μM compared to the hNMU-25 response at the same concentration. NT=not tested.

hNMUR1 = biological target: T1, hNMUR1 (Homo sapiens, UniProt Q9HB89); test: In vitro functional assay, HEK-hR1 cells; design: expressed in transfected cells; host or cells: FLP-In CHO or HEK-293 FLP-In cells (pcDNA5); HEK-293/aeq17 lines (pIRES-puro) were also made; conditions: Table 9, HEK-hR1, functional
T1 sequence (Q9HB89 1-426): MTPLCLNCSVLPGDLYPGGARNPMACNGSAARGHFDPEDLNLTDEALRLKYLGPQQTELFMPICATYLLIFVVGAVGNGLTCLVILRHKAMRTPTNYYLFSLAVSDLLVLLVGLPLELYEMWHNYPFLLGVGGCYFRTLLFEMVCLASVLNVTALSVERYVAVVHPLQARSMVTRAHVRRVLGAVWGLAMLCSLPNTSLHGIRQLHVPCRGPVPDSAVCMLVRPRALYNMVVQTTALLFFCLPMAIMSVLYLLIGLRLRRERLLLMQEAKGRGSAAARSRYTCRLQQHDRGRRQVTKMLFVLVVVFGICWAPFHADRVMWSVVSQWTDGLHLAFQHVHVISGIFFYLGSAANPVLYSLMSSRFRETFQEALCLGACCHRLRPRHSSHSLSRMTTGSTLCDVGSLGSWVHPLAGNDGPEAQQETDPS
Text: as §1, §2, §3, §4
In addition to FLIPR, NMU receptor function can also be evaluated using an aequorin assay. Stable cell lines expressing the aequorin jelly fish gene can be used to report the activation of GPCRs by monitoring intracellular calcium mobilization. The objective is to identify compounds which specifically stimulate aequorin bioluminescence. Calcium-dependent luminescence is generated by the treatment of cells with the coelenterate luciferin, coelenterazine. Briefly, confluent monolayers of HEK-293/aeq 17 cells expressing hNMUR1 or hNMUR2 are “charged” with coelenterazine (Molecular Probes, Carlsbad, Calif.). Confluent T75 flasks are rinsed with media containing 300 μM glutathione and 0.1% FBS. Cells are incubated at 37° C. for one hour in 8 mL media, 0.1% FBS, 300 μM glutathione, and 20 μM coelenterazine. T75 flasks are subsequently rinsed with 6 mL ECB buffer (140 mM NaCl, 20 mM KCl, 20 mM HEPES, 5 mM glucose, 1 mM MgCl, 1 mM CaCl2, 0.1 mg/mL BSA, PH 7.3-7.4). Cells are removed from the flask in ECB buffer, pelleted, and resuspended at a density of 2×10^5 cells/mL. Agonists are added to the cells and activity is determined using a luminometer. […]

hNMUR2 = hNMUR2 (Homo sapiens, UniProt Q9GZQ4); test: FLIPR calcium mobilization assay, human NMUR2; design: expressed in transfected cells; host or cells: FLP-In CHO or HEK-293 FLP-In cells (pcDNA5); HEK-293/aeq17 lines (pcDNA3.1) were also made; conditions: for EC50: FLIPR
Chain of hNMUR2 (Q9GZQ4 whole entry): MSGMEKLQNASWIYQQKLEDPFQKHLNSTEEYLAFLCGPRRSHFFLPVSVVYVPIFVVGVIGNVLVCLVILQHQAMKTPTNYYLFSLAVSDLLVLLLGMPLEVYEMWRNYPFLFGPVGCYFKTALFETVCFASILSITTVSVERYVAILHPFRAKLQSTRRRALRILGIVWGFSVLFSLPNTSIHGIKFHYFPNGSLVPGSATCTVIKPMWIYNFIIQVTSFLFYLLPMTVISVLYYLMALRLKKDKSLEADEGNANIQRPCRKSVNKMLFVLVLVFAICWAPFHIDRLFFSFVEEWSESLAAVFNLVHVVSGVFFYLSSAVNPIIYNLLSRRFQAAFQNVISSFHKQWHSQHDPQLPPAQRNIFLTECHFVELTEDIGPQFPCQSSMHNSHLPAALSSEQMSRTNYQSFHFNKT
Text: as §1, §2, §3, §4, §5

[1] = maximum response at 1 μM compared to hNMU-25, mouse NMUR2
[2] = maximum response at 1 μM compared to hNMU-25, human NMUR2

| Compound | % Activity (mouse NMUR2; [1]) | EC50 (hNMUR2; human NMUR2) | % Activity (hNMUR2; [2]) | EC50 (mouse NMUR2; mouse NMUR2) | further results |
| --- | --- | --- | --- | --- | --- |
| H-FRVDEEFQSPFASQSRGYFLFRPRN-NH2 [hNMU-25, reference compound] | – | – | – | – | IC50 (mouse NMUR2): 0.2 nM; % Activity (hNMUR1): 100%; EC50 (hNMUR1): 5.5 nM |
| CCN1C(=O)CC(SC[C@H](NC(C)=O)C(=O)N[C@@H](C)C(=O)N[C@@H](CO)C(=O)N[C@@H](CCC(N)=O)C(=O)N[C@@H](CO)C(=O)N[C@@H](CCCNC(=N)N)C(=O)NCC(=O)N[C@@H](Cc2ccc(O)cc2)C(=O)N[C@@H](Cc2ccccc2)C(=O)N[C@@H](CC(C)C)C(=O)N[C@@H](Cc2ccccc2)C(=O)N[C@@H](CCCNC(=N)N)C(=O)N2CCC[C@H]2C(=O)N[C@@H](CCCNC(=N)N)C(=O)N[C@@H](CC(N)=O)C(N)=O)C1=O (some centres unmarked) [NMU17] (Ac-C(Succinimide(1-Et,3-yl))ASQSRGYFLFRPRN-NH2) | 100% | 1.5 nM | 99.8% | – | – |
| CCCCCCCCCCCCCCCC(=O)N[C@@H](CSC1CC(=O)N(CC)C1=O)C(=O)N[C@@H](Cc1ccccc1)C(=O)N[C@@H](CCCNC(=N)N)C(=O)N[C@H](C(=O)N[C@@H](CC(=O)O)C(=O)N[C@@H](CCC(=O)O)C(=O)N[C@@H](CCC(=O)O)C(=O)N[C@@H](Cc1ccccc1)C(=O)N[C@@H](CCC(N)=O)C(=O)N[C@@H](CO)C(=O)N1CCC[C@H]1C(=O)N[C@@H](Cc1ccccc1)C(=O)N[C@@H](C)C(=O)N[C@@H](CO)C(=O)N[C@@H](CCC(N)=O)C(=O)N[C@@H](CO)C(=O)N[C@@H](CCCNC(=N)N)C(=O)NCC(=O)N[C@@H](Cc1ccc(O)cc1)C(=O)N[C@@H](Cc1ccccc1)C(=O)N[C@@H](CC(C)C)C(=O)N[C@@H](Cc1ccccc1)C(=O)N[C@@H](CCCNC(=N)N)C(=O)N1CCC[C@H]1C(=O)N[C@@H](CCCNC(=N)N)C(=O)N[C@@H](CC(N)=O)C(N)=O)C(C)C (some centres unmarked) [NMU24] (Palmitoyl-C(Succinimide(1-Et,3-yl))FRVDEEFQSPFASQSRGYFLFRPRN-NH2) | 82.4% | – | 63.9% | – | – |
| H-FRVDEEFQSPFASQSRPYFLFRPRN-NH2 [NMU4] | 100% | 2.6 nM | 100% | 1.2 nM | – |
| Ac-C2FRVDEEFQSPFASQSRGYFLFRPRN-CONH2 [NMU9] ({Ac-C(PEG 40 kDa)}-FRVDEEFQSPFASQSRGYFLFRPRN-NH2) [C2 = Cys(PEG)240 kDa from Nektar (mPEG2-MAL-40 k)] | – | 91.1 nM | 94.3% | 19 nM | – |
| Ac-FRVDEEFQSPFASQSRPYFLFRPRN-NH2 [NMU5] | 100% | – | 98.1% | 1 nM | – |
| Ac-C4-C4-FRVDEEFQSPFASQSRGYFLFRPRN-CONH2 ({Ac-C(PEG 20 kDa)-C(PEG 20 kDa)}-FRVDEEFQSPFASQSRGYFLFRPRN-NH2) [NMU23, C4 = Cys(PEG)20 kDa] | – | – | – | 21.3 nM | – |
| CCN1C(=O)CC(SC[C@H](NC(C)=O)C(=O)N[C@@H](Cc2ccccc2)C(=O)N[C@@H](CCCNC(=N)N)C(=O)N[C@H](C(=O)N[C@@H](CC(=O)O)C(=O)N[C@@H](CCC(=O)O)C(=O)N[C@@H](CCC(=O)O)C(=O)N[C@@H](Cc2ccccc2)C(=O)N[C@@H](CCC(N)=O)C(=O)N[C@@H](CO)C(=O)N2CCC[C@H]2C(=O)N[C@@H](Cc2ccccc2)C(=O)N[C@@H](C)C(=O)N[C@@H](CO)C(=O)N[C@@H](CCC(N)=O)C(=O)N[C@@H](CO)C(=O)N[C@@H](CCCNC(=N)N)C(=O)NCC(=O)N[C@@H](Cc2ccc(O)cc2)C(=O)N[C@@H](Cc2ccccc2)C(=O)N[C@H](C)C(=O)N[C@@H](Cc2c[nH]c3ccccc23)C(=O)N[C@@H](CCCNC(=N)N)C(=O)N2CCC[C@H]2C(=O)N[C@@H](CCCNC(=N)N)C(=O)N[C@@H](CC(N)=O)C(N)=O)C(C)C)C1=O (some centres unmarked) [NMU13] (Ac-C(Succinimide(1-Et,3-yl))FRVDEEFQSPFASQSRGYF[dA]WRPRN-NH2) | 0.0% | > 1000 nM | 0.0% | > 1000 nM | IC50 (mouse NMUR2): > 1000 nM; % Activity (mouse NMUR2; functional, mouse R2, relative to native hNMU responses): 27%; % Activity (hNMUR2; functional, human R2, relative to native hNMU responses): 0% |
| CCN1C(=O)CC(SC[C@H](NC(C)=O)C(=O)N[C@@H](CSC2CC(=O)N(CC)C2=O)C(=O)N[C@@H](Cc2ccccc2)C(=O)N[C@@H](CCCNC(=N)N)C(=O)N[C@H](C(=O)N[C@@H](CC(=O)O)C(=O)N[C@@H](CCC(=O)O)C(=O)N[C@@H](CCC(=O)O)C(=O)N[C@@H](Cc2ccccc2)C(=O)N[C@@H](CCC(N)=O)C(=O)N[C@@H](CO)C(=O)N2CCC[C@H]2C(=O)N[C@@H](Cc2ccccc2)C(=O)N[C@@H](C)C(=O)N[C@@H](CO)C(=O)N[C@@H](CCC(N)=O)C(=O)N[C@@H](CO)C(=O)N[C@@H](CCCNC(=N)N)C(=O)NCC(=O)N[C@@H](Cc2ccc(O)cc2)C(=O)N[C@@H](Cc2ccccc2)C(=O)N[C@@H](CC(C)C)C(=O)N[C@@H](Cc2ccccc2)C(=O)N[C@@H](CCCNC(=N)N)C(=O)N2CCC[C@H]2C(=O)N[C@@H](CCCNC(=N)N)C(=O)N[C@@H](CC(N)=O)C(N)=O)C(C)C)C1=O (some centres unmarked) [NMU22] (Ac-C(Succinimide(1-Et,3-yl))C(Succinimide(1-Et,3-yl))FRVDEEFQSPFASQSRGYFLFRPRN-NH2) | 100% | – | 105% | – | – |
| Ac-C4FRVDEEFQSPFASQSRGYFLFRPRN-CONH2 ({Ac-C(PEG 20 kDa)}-FRVDEEFQSPFASQSRGYFLFRPRN-NH2) [NMU21, C4 = Cys(PEG)20 kDa] | – | 24.2 nM | 97.9% | – | – |
| GYFLFRPRN-NH2 [NMU3] | 100% | – | 100% | – | – |
| CCN1C(=O)CC(SC[C@H](NC(C)=O)C(=O)NCC(=O)N[C@@H](Cc2ccc(O)cc2)C(=O)N[C@@H](Cc2ccccc2)C(=O)N[C@@H](CC(C)C)C(=O)N[C@@H](Cc2ccccc2)C(=O)N[C@@H](CCCNC(=N)N)C(=O)N2CCC[C@H]2C(=O)N[C@@H](CCCNC(=N)N)C(=O)N[C@@H](CC(N)=O)C(N)=O)C1=O (some centres unmarked) [NMU6] (Ac-C(Succinimide(1-Et,3-yl))GYFLFRPRN-NH2) | 100% | 1.5 nM | 100% | – | – |
